According to article PMC9719519, “Non-classical ferroptosis inhibition by a small molecule targeting PHB2” (Nature Communications, 2022):

Target: prohibitin 2 (PHB2) (Homo sapiens, UniProt Q99623)
Assay: diazirine photoaffinity labelling (UV […] nm) with pull-down/western blot; DARTS
Assay type: cell-based
Parameters: endogenous PHB2 in ES-2 cells

Sequence of prohibitin 2 (PHB2) (Q99623 2-299): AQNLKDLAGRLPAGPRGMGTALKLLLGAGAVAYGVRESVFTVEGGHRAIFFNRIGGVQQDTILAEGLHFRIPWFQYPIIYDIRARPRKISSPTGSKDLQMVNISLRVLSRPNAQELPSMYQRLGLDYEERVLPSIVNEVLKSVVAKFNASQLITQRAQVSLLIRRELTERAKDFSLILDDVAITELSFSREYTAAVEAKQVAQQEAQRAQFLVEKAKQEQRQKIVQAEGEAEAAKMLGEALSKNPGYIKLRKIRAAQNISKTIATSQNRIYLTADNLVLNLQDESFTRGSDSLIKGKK

Structure (SMILES): C#CCCC1(CC(=O)N2CCC(n3cc(-c4cn5cc(-c6ccccc6)nc5c(C5=CCOCC5)n4)cn3)CC2)N=N1 [YL-939-1]
- diazirine photoaffinity labelling (UV 365 nm) with pull-down/western blot; DARTS: revealed that only PHB2 protein could be pulled down by the probe (Fig. 4D)
